Assay results as given in patent US8003312B2, “Multiplex cellular assays using detectable cell barcodes” (The Board of Trustees of the Leland Stanford Junior …, priority 2007, dated 2011).

Columns and labels:
Stat signaling = experiment: Miniature drug screen and inhibitor titration in U937 cells: Stat signaling overall (pStat1, pStat3, pStat5); format: cell-based, human; details: for order of selectivity for the cytokine pathways: titration (Jak inhibitor I 0.005-5 μM, WHI-P154 0.1-100 μM), 30 min before stimulation
Experimental: (§1) FIG. 4. FCB of 36 samples increases throughput of phospho flow. (a) Efficient barcoding of 36 samples. U937 cells were left untreated or were stimulated with IFN-γ (10 ng/ml) for 10 min. Unstimulated and stimulated samples were added to a 96-well plate in an alternating pattern across each row and down each column and labeled with six concentrations of Pacific Blue-NHS (0, 0.15, 0.6, 2.5, 10 or 40 μg/ml) and/or Alexa 488-NHS (0, 0.07, 0.3, 1.3, 5 or 20 μg/ml). […] Reverse deconvolution (bottom panel) of all stimulated or unstimulated cells produced the expected checkerboard pattern. (b) Miniature drug screen and titration of inhibitors with FCB. U937 cells were treated with various drugs before stimulation with IFN-γ, IL-6 and GM-CSF (stimulation). WHI-P154 (WHI; 50 μM), PD98059 (PD; 20 μM), Jak inhibitor I (Jak-1; 5 μM), and wortmannin (Wort; 2 μM) were added to the cells 30 min before stimulation; samples were barcoded with Pacific Blue-NHS and simultaneously stained with pStat1 Alexa 488, pStat3 PE and pStat5 Alexa 647 (left three plots). Jak inhibitor I was added at 0.005, 0.05, 0.5 or 5 μM for 30 min before stimulation (middle). WHI-P154 was added at 0.1, 1, 10 or 100 μM for 30 min before stimulation (right). Non-drug-treated positive and negative controls are included within each FCB staining set, allowing for internal normalization of each staining cocktail.
We next applied the FCB platform to a drug screening profile, as a real-world example of how the technique could be used to enhance analysis throughput and reproducibility (FIG. 4b). Using Pacific Blue as the FCB reagent, we pretreated U937 cells with four small-molecule inhibitors: wortmannin (a PI-3 kinase inhibitor), Jak inhibitor I (an inhibitor of all Jak kinases), PD98059 (an MEK inhibitor) and WHI-P154 (a Jak3 inhibitor). We then stimulated the cells simultaneously with IFN-γ, IL-6 and granulocyte-monocyte colony-stimulating factor (GM-CSF) to induce pStat1, pStat3 and pStat5, respectively. […]

[1] = system: Stat1 and ERK phosphorylation; experiment: Titration of four screening hits in Jurkat cells using six-sample FCB (pStat1, pERK); format: cell-based, human; details: 30 min before IFN-γ (10 ng/ml) and anti-CD3/28 (5 μg/ml each)
Experimental: FIG. 8. Detailed titration of four hits from Jurkat drug screening experiment (FIG. 5). a) Four compounds: Bay11-7082, Indirubin-3-monoxime, PP2, and ZM449829 were added to Jurkat cells at different concentrations for 30 min prior to stimulation with IFN-γ (10 ng/ml) and anti-CD3/28 (5 μg/ml each). The cells were fixed and permeabilized, then stained with pStat1 Ax647 and pERK Ax488 antibodies. Percent inhibition of phosphorylation was plotted against concentration of drugs and fitted with a logistic regression curve to obtain IC50 values. Numbers in the top right of each plot are the IC50 value in μM units. b) Lysates were prepared from the same cells used for phospho flow and analyzed by western blot with pStat1 and pERK antibodies. Drugs were applied at 20 μM (same concentration as initial screen) for western blot analysis.
Because a few of these hits were unexpected, we performed titration experiments using six-sample FCB on four of the compounds to validate the results (FIG. 8).
We calculated fold change of phosphorylation upon stimulation by dividing median fluorescence intensity (MFI) of stimulated samples by the MFI of unstimulated samples: FC=MFIstim/MFIunstim. For heat map analysis, FC was converted to log2 values to enhance visualization and so that samples showing no change have a value of zero. To measure drug activity, we calculated percent inhibition as follows: Percent Inhibition=1−((MFItreated ? MFIunstim)/(MFIstim ? MFIunstim)), where “treated” denotes drug treated (and stimulated) samples, “stim” denotes control stimulated (non drug treated) samples, and “unstim” denotes control unstimulated (non drug treated) samples. We calculated Z′-factor from control stimulated and unstimulated samples by the following: Z′-factor=1 ? ((3[…]SDstim 3[…]SDunstim)/(meanstim ? meanunstim)), where “SD” denotes standard deviation of the mean, and “mean” denotes the mean of either stimulated or unstimulated MFI values. Z′-factor is an indication of the robustness and suitability of an assay for high throughput screening, with values from 0.5 to 1 indicating an excellent assay, 0 to 0.5 indicating a usable assay, and less than 0 indicating the assay has too much noise or inadequate dynamic range.

[2] = system: Stat1 and ERK phosphorylation; experiment: 96-well FCB drug screen in Jurkat cells: class of drug activity, pERK versus pStat1; format: cell-based, human; details: 20 μM, 45 min before stimulation with anti-CD3, anti-CD28 and IFN-γ for 5 min
Experimental: (a) Layout of screening experiment. Jurkat cells were treated with 70 known small-molecule kinase or phosphatase inhibitors (20 μM), Jak inhibitor I (2 μM) or U0126 (20 μM) for 45 min before stimulation with 5 μg/ml anti-CD3 and anti-CD28 and 10 ng/ml IFN-γ for 5 min. […] After fixation, cells were barcoded with Alexa 700-NHS (0, 0.06, 0.25 or 1 μg/ml) to delineate the four quadrants of the 96-well plate. Each quadrant was subdivided into four rows labeled with Pacific Blue-NHS (0, 0.04, 0.2 or 1 μg/ml) and six columns labeled with Alexa 488-NHS (0, 0.02, 0.06, 0.18, 0.5 or 1.5 μg/ml). […] (c) Heat map representation of percent inhibition of ERK and Stat1 phosphorylation. […] Wells with black triangles were excluded from the analysis due to high fluorescence of the drug in the phospho-protein fluorescence channels. […] (d) Two-dimensional plots of pERK versus pStat1.
For this purpose, we designed an FCB labeling scheme using three dyes to barcode 96 samples (FIG. 5). With this FCB setup, we screened a small-molecule library of 70 previously characterized kinase and phosphatase inhibitors for their ability to inhibit T-cell receptor-mediated ERK phosphorylation and/or Stat1 phosphorylation induced by IFN-γ (FIG. 5a). After addition of inhibitors, stimulation, fixation and barcoding, we combined all 96 samples into one sample and stained it with phycoerythrin-labeled antibodies against phosphorylated ERK (pERK PE) and pStat1 Alexa 647 antibodies (for a total of five fluorophores: three FCB reagents and two antibodies).
We cultured U937 cells, a monocytic lymphoma cell line, and Jurkat T cells in RPMI-1640 containing 10% fetal bovine serum, 100 U/ml penicillin, 100 μg/ml streptomycin, 1 mM L-glutamine (RPMI-10), and stimulated cells at a density of 10^6 cells/ml. […] We stimulated cells in 96-well deep block plates (2-ml capacity) by adding the appropriate cytokine or stimulus directly to the culture medium without prior starvation. After a 10-15-min incubation, we fixed cells with 1.6% formaldehyde for 10 min and then proceeded with the FCB phospho flow protocol below. Where inhibitors were used, we added these compounds 30 min before stimulation.
We performed phospho flow as previously described (ref. 4) with slight modifications to include FCB labeling. After formaldehyde fixation, we resuspended samples in 100% 20-25° C. methanol (typically 500 μl per 10^6 cells) containing the indicated concentration of Alexa Fluor or Pacific Blue succinimidyl esters, with each sample receiving a different concentration of fluorescent dye.

Stat5 phosphorylation = experiment: Miniature drug screen by FCB phospho flow in U937 cells: GM-CSF-induced pStat5; format: cell-based, human; details: added 30 min before stimulation with IFN-γ, IL-6 and GM-CSF
Experimental: as §1, with “cocktail. […]” for “cocktail.”

Stat1 phosphorylation = experiment: Miniature drug screen by FCB phospho flow in U937 cells: IFN-γ-induced pStat1; format: cell-based, human; details: added 30 min before stimulation with IFN-γ, IL-6 and GM-CSF
Experimental: as §1, with “cocktail. […]” for “cocktail.”

Stat3 phosphorylation = experiment: Miniature drug screen by FCB phospho flow in U937 cells: IL-6-induced pStat3; format: cell-based, human; details: added 30 min before stimulation with IFN-γ, IL-6 and GM-CSF
Experimental: as §1, with “cocktail. […]” for “cocktail.”

[3] = system: pStat1 in CD11b-hi cells (neutrophils); experiment: IFN-γ time course and dose titration in primary mouse splenocytes: pStat1 in neutrophils; format: cell-based
Experimental: (§2) FIG. 6. Use of FCB to label primary cell populations. […] (a) Mouse splenocytes were stimulated with different concentrations of IFN-γ across each row (0, 0.17, 0.5, 1.5, 4.5, 13, 40, 120, 370, 1,100, 3,300 or 10,000 pg/ml) for 0, 4, 8, 15, 30, 60, 120 or 180 min (each row representing a different time point). Cells were barcoded with three FCB markers (Alexa 700, Alexa 488 and Pacific Blue as in FIG. 5) during permeabilization, and stained with CD11b Cy5.5PerCP, B220 QD605, TCR PE, CD4 Cy7PE and pStat1 Alexa 647. Cell types were first gated based on surface markers to obtain CD11b-hi cells (neutrophils), B cells, CD4+ T cells and CD4-T cells. Each cell type was then deconvoluted to obtain the original 96-well plate layout. (b) Heat map representation showing the fold change in pStat1 levels on a log 2 scale across dose (from left to right) and time gradients (top to bottom). Yellow represents maximal induction, red indicates half-maximal induction, and black indicates no induction. Note that the scale for each cell type is different owing to different maximal induction of Stat1 phosphorylation.
(§3) Primary cells, and diseased cells from patients, are a limited resource and are not amenable to the majority of high-throughput screening systems. Therefore, we tested whether FCB could be applied to large-scale signaling profiling of heterogeneous populations of normal and/or diseased cells (refs. 13, 14). To this end, we stimulated primary mouse splenocytes with IFN-γ in a 96-well plate format, and asked whether different cell types show different kinetics and thresholds of responsiveness to IFN-γ. We performed a time course of stimulation across 11 different concentrations of the cytokine. Here, to discriminate cell types in addition to measuring phosphorylation levels, we stained the cells with pStat1 Alexa 647 and four surface marker antibodies: B220, TCR, CD4 and CD11b (for a total of eight colors: three FCB markers, four surface antibodies and one phospho antibody). […]

[4] = system: pStat1 in CD4+ and CD4− T cells; experiment: IFN-γ time course and dose titration in primary mouse splenocytes: pStat1 in T cells; format: cell-based
Experimental: as §2
Primary cells, and diseased cells from patients, are a limited resource and are not amenable to the majority of high-throughput screening systems. Therefore, we tested whether FCB could be applied to large-scale signaling profiling of heterogeneous populations of normal and/or diseased cells (refs. 13, 14). To this end, we stimulated primary mouse splenocytes with IFN-γ in a 96-well plate format, and asked whether different cell types show different kinetics and thresholds of responsiveness to IFN-γ. We performed a time course of stimulation across 11 different concentrations of the cytokine. Here, to discriminate cell types in addition to measuring phosphorylation levels, we stained the cells with pStat1 Alexa 647 and four surface marker antibodies: B220, TCR, CD4 and CD11b (for a total of eight colors: three FCB markers, four surface antibodies and one phospho antibody). We first gated cell types based on surface marker expression to obtain B cells, CD4+ T cells, CD4− T cells and CD11b-hi cells (neutrophils) 25 (FIG. 6a). We then deconvoluted each cell type to obtain the original plate layout.
We cultured U937 cells, a monocytic lymphoma cell line, and Jurkat T cells in RPMI-1640 containing 10% fetal bovine serum, 100 U/ml penicillin, 100 μg/ml streptomycin, 1 mM L-glutamine (RPMI-10), and stimulated cells at a density of 10^6 cells/ml. We obtained splenocytes from BALB/c mice by homogenization and resuspended them in RPMI-10 at 5 106 cells/ml. Splenocytes were rested for 2-3 h at 37° C. before stimulation13. We stimulated cells in 96-well deep block plates (2-ml capacity) by adding the appropriate cytokine or stimulus directly to the culture medium without prior starvation. […]

pStat1 in B cells = experiment: IFN-γ time course and dose titration in primary mouse splenocytes: pStat1 in B cells; format: cell-based
Experimental: as §2, §3

With COc1cccc(-c2cc(=O)c3ccccc3o2)c1N [PD98059] the “effects on Stat signaling” value (Stat signaling; 20 μM, added 30 min before stimulation with IFN-γ, IL-6 and GM-CSF) was “no or minor effects”.
C=CC(=O)c1ccc2ccccc2c1 [ZM-449829] was tested, and the “selectivity between ERK and Stat1 phosphorylation” value [1] was “little selectivity” and the “class of drug activity (selectivity, Stat1 versus ERK phosphorylation)” value [2] was “inhibited both Stat1 and ERK phosphorylation potently”.
For COc1cc2ncnc(Nc3ccc(O)c(Br)c3)c2cc1OC [WHI-P154], the “inhibition of Stat5 phosphorylation” value (Stat5 phosphorylation; 50 μM) was 40%, the “inhibition of Stat1 phosphorylation” value (Stat1 phosphorylation; 50 μM) was 80% and the “inhibition of Stat3 phosphorylation” value (Stat3 phosphorylation; 50 μM) was 100%. The “order of selectivity for the cytokine pathways” value (Stat signaling) was “IL-6-Stat3>IFN-γ-Stat1>GM-CSF-Stat5”.
For Jak inhibitor I, the “inhibition of Stat5 phosphorylation” value (Stat5 phosphorylation; 5 μM) was “completely abrogating”, the “inhibition of Stat1 phosphorylation” value (Stat1 phosphorylation; 5 μM) was “completely abrogating” and the “inhibition of Stat3 phosphorylation” value (Stat3 phosphorylation; 5 μM) was “completely abrogating”. For the same molecule, the “order of selectivity for the cytokine pathways” value (Stat signaling) was “IL-6-Stat3>IFN-γ-Stat1>GM-CSF-Stat5”.
CC(C)(C)n1nc(-c2ccc(Cl)cc2)c2c(N)ncnc21 [PP2] was tested, and the “selectivity for ERK (over Stat1) phosphorylation” value [1] was “extremely selective” and the “class of drug activity (selectivity, Stat1 versus ERK phosphorylation)” value [2] was “selectively inhibited ERK phosphorylation”.
CCCCCCCCCCCCC/C=C/[C@@H](O)[C@@H](N)CO [sphingosine] was tested, and the “class of drug activity (selectivity, Stat1 versus ERK phosphorylation)” value [2] was “selectively inhibited ERK phosphorylation”.
With “IFN-γ: mouse IFN-γ from BD Pharmingen, cytokine used to stimulate primary mouse splenocytes” the “maximum induction of pStat1” value [3] was 4.5 fold, the “time of maximal pStat1 induction” value [3] was 30-60 min and the “EC50, pStat1 induction” value ([3]; neutrophils (CD11b-hi cells) of mouse splenocytes) was 400 pg/ml. For the same molecule, the “half-maximal response concentration (EC50), pStat1 induction” value ([4]; CD4+ T cells of mouse splenocytes) was 50 pg/ml, the “maximum induction of pStat1” value ([4]; CD4+/CD4− T cells of mouse splenocytes) was 19-23 fold and the “half-maximal response concentration (EC50), pStat1 induction” value ([4]; CD4− T cells of mouse splenocytes) was 50 pg/ml. The “time of maximal pStat1 induction” value ([4]; T cells of mouse splenocytes) was 30 min, the “maximum induction of pStat1” value (pStat1 in B cells) was 19-23 fold and the “time of maximal pStat1 induction” value (pStat1 in B cells) was 8-30 min. The “EC50, pStat1 induction” value (pStat1 in B cells; B cells of mouse splenocytes) was 220 pg/ml.
In the case of O=C1Nc2ccccc2/C1=C1/Nc2ccccc2/C1=N\O [indirubin-3′-monooxime], the “selectivity for Stat1 (over ERK) phosphorylation” value [1] is reported as “extremely selective” and the “class of drug activity (selectivity, Stat1 versus ERK phosphorylation)” value [2] is reported as “selectivity for inhibiting Stat1 phosphorylation”.
For N#CC(=C(/N)Sc1ccccc1N)/C(C#N)=C(\N)Sc1ccccc1N [U0126], the “class of drug activity (selectivity, Stat1 versus ERK phosphorylation)” value [2] was “selectively inhibited ERK phosphorylation”.
